Experimental data as given in US20260069555A1, “Compositions and Methods for Modulating the Effect of Beta-Blocker Activity in a Subject” (Duke University, priority 2021, published 2026).
Values joined by “and” are separate entries in the source; they are usually repeats but may differ in a detail not shown here. Equal entries are not always repeated.

Assays:
β2AR-Gs complexes = β2AR-Gs complexes (Homo sapiens, UniProt P07550); assay: 35S-GTPγS binding to heterotrimeric Gs, β2AR in HDL; conditions: epinephrine 10 μM stimulation
β2AR-Gs complexes, sequence (P07550 whole entry, one chain of several): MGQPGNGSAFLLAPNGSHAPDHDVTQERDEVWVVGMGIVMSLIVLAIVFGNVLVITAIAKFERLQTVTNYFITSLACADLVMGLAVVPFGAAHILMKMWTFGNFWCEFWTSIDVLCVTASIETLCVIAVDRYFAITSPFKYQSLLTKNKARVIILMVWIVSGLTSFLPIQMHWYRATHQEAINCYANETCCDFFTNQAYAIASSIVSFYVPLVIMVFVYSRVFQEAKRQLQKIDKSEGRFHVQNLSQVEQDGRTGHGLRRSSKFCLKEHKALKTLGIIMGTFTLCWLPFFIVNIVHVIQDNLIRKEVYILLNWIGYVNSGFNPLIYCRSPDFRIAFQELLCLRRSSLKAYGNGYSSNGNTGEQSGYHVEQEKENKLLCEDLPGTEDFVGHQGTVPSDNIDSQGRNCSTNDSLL

[1] = molecular target: endogenously expressed β2AR (Homo sapiens, UniProt P07550); assay: GloSensor cAMP generation in HEK293 cells; conditions: 30 μM modulator
endogenously expressed β2AR, sequence (P07550 whole entry): as the sequence (P07550 whole entry, one chain of several) above

β2AR = β2AR (Homo sapiens, UniProt P07550); assay: 125I-CYP competition radioligand binding at β2AR in HDL particles
β2AR, sequence (P07550 whole entry): as the sequence (P07550 whole entry, one chain of several) above

β1AR [2] = molecular target: T1, β1AR (Homo sapiens, UniProt P08588); assay: EGFR transactivation (EGFR endocytosis BRET) in HEK293 cells stably expressing β1ARs; format: cell-based
T1 sequence (P08588 whole entry): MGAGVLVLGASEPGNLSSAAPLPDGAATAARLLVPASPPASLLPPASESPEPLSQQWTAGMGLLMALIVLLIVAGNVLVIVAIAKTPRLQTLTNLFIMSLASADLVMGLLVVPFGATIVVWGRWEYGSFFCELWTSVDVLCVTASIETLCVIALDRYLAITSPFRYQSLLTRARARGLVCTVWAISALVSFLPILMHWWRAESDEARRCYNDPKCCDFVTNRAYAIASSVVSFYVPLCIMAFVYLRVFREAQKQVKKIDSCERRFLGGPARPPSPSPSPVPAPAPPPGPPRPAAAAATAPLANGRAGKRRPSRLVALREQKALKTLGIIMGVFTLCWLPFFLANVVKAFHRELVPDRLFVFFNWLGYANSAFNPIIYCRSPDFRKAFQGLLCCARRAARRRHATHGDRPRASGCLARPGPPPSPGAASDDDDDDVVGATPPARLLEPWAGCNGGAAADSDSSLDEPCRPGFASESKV
Description: HEK293 cells stably expressing β1ARs were transfected with 250 ng of EGFR-RlucII and 1 μg of rGFP-FYVE constructs. The day following transfection, cells were re-seeded onto poly-L-ornithine coated 96-well plates at ˜25,000 cells per well. […] The cell-permeable substrate coelenterazine 400a (final concentrations of 5 μM) was added 3˜6 min before BRET measurements.

β1AR [3] = molecular target: T1, β1AR; assay: 125I-CYP competition binding at β1AR-HDL particles (Example 2)
mouse hearts = assay: Ischemia/reperfusion-induced cell apoptosis in mouse heart (TUNEL); format: in vivo
Description: Ischemia reperfusion-induced cell apoptosis in mouse heart: Eight to twelve-week-old C57BL/6J wild-type mice or eight to twenty-seven-week-old αMyHC-Cre:Arrblflox/flox/Arrb2flox/flox mice of both sexes were used. Animals were randomly assigned to, and the researchers were blinded for, treatment groups. […] After 3 days of treatment, cardiac ischemia was produced by the ligation of left anterior descending coronary artery. After 45 min, the ligation was released to allow the blood flow to be restored for 45 min. […] The hearts were then embedded in optimum cutting temperature compound (Sakura Finetek) and snap frozen in liquid nitrogen. TUNEL staining on the cryo-sections were performed with in situ cell death detection kit (Sigma-Aldrich) according to the manufacturer's protocol. Sections were then mounted in ProLon Diamond Antifade Mountant with DAPI (Thermo Fisher Scientific). Images were recorded with Zeiss Axio Observer Z1 confocal microscope with 20× objective. In each heart, sections from different groups (from base to apex of the tissue, apart by 0.5 mm) were stained, and the group with maximum TUNEL-positive cells were used for quantification. At lease 9 images from 3 sections were quantified for each heart. The number of TUNEL-positive cells and the total number of nuclei as determined by DAPI staining were counted using ImageJ software.

C57BL/6J wild-type mice = assay: Isoproterenol-induced hemodynamics in mouse heart; format: in vivo; conditions: 3 days
Description: Isoproterenol-induced hemodynamic in mouse heart: Eight to twelve-week-old C57BL/6J wild-type mice of both sexes were used. Animal experiments carried out were handled according to approved protocols and animal welfare regulations mandated by the Institutional Animal Care and Use Committee of Duke University Medical Center. […] After treatment, mice were anesthetized with ketamine (100 mg/kg) and xylazine (2.5 mg/kg). After bilateral vagotomy, a 1.4 French (0.46 mm) high fidelity micromanometer catheter (ADInstruments) connected to a pressure transducer (ADInstruments) was inserted into the left ventricle to monitor blood pressure. Basal blood pressure was recorded at steady state after the catheter insertion (2-3 min after insertion). Graded doses of isoproterenol were administered at 45 sec intervals by intravenous injection through a jugular vein. The blood pressure was monitored continuously and recorded at the steady state (35-45 sec after each injection). Data analysis was performed using LabChart 8 software (ADInstruments).

β1AR [4] = molecular target: T1, β1AR; assay: GloSensor cAMP assay in HEK293 cells transfected with β1ARs; conditions: for activation of cAMP: β-blockers as stimulating ligands
β1AR [5] = molecular target: T1, β1AR; assay: ERK activation assay in HEK293 cells expressing β1ARs; format: cell-based; conditions: for dependency of ERK activation on β-arrestin: β-arrestin1/2 knockout vs wild type HEK293 cells
Text: ERK activation assay: HEK293 cells with stable overexpression of FLAG-tagged β1AR or β-arrestin knockout were described previously. Cells were periodically treated with BM Cyclin (Roche) to avoid mycoplasma contamination. […] Cell lysate samples were separated by SDS-PAGE, transferred to PVDF membrane (Bio-Rad) and subjected to immunoblotting with anti-MAPK 1/2 (EMD Millipore) and anti-p44/42 MAPK (Cell Signaling) antibodies. Immunoblots were detected using enhanced chemiluminescence (Thermo Fisher Scientific) and analyzed with ImageJ software. The densitometry values from pERK blots were normalized to respective total ERK blots, and normalized to the maximum response of control group in each experiment.

## CC(C)N(C)S(=O)(=O)c1ccc(Sc2ccc(C(N)=O)cc2)c(C(=O)N[C@@H](CC(N)=O)Cc2ccc(C(C)(C)C)cc2)c1 [A9, (R)—N-(4-amino-1-(4-(tert-butyl)phenyl)-4-oxobutan-2-yl)-2-((4-carbamoylphenyl)thio)-5-(N-isopropyl-N-methylsulfamoyl)benzamide]
β2AR-Gs complexes
  effect on agonist-stimulated activation of Gs / 35S-GTPγS binding to Gs: markedly blocks
[1]
  modulation of isoproterenol-stimulated cAMP generation: classic NAM
β2AR; affinity shifts, 20 μM analog
  PAM activity with agonists including epinephrine: absolutely no PAM activity
β2AR; carvedilol-bound β2AR
  Log KT (dissociation constant of PAM for receptor binding): −5.533
β2AR; compared with parent cmpd-6
  cooperativity with carvedilol: retains its positive cooperativity with carvedilol

## COc1cc2ncnc(Nc3cccc(Cl)c3)c2cc1OC [AG1478]
β1AR [2]; 10 μM pretreatment
  effect on EGF-induced change in BRET ratio: blocked

## COc1ccc(Sc2ccc(S(=O)(=O)N(C)C(C)C)cc2C(=O)N[C@@H](CC(N)=O)Cc2ccc(C(C)(C)C)cc2)cc1 [Cmpd-6, (R)—N-(4-amino-1-(4-(tert-butyl)phenyl)-4-oxobutan-2-yl)-5-(N-isopropyl-N-methylsulfamoyl)-2-((4-methoxyphenyl)thio)benzamide]
β1AR [3]; 25 μM Cmpd-6
  cooperativity with the full agonists epinephrine and norepinephrine: minimal positive cooperativity
β1AR [3]; FIG. 10A
  enhancement of receptor binding affinity of carvedilol for β1ARs: 7.9 fold and ~8 fold
Mouse hearts; Cmpd-6 5 mg/kg/day alone, wild type mice
  TUNEL positive cells in the ischemic zone: ~10%
β1AR [2]; 30 μM Cmpd-6
  PAM activity on the isoproterenol-induced EGFR transactivation: no PAM activity
C57BL/6J wild-type mice; Cmpd-6 5 mg/kg/day + carvedilol 1 mg/kg/day
  potentiation of the inhibitory effect of carvedilol on heart rate and dP/dt max: only a modest potentiation
β1AR [4]; 30 μM Cmpd-6
  effect on isoproterenol- or carvedilol-induced cAMP dose response curve: no enhancement
β1AR [5]; 30 μM Cmpd-6
  cooperativity on isoproterenol-stimulated ERK activation: no cooperativity

## C=CCc1ccccc1OCC(O)CNC(C)C (stereo not shown) [alprenolol]
β1AR [4]
  activation of cAMP: 20 % of the maximal isoproterenol response
β1AR [5]
  dependency of ERK activation on β-arrestin: ~50%

## CC(C)(Cc1c[nH]c2ccccc12)NCC(O)COc1ccccc1C#N (stereo not shown) [bucindolol]
β1AR [4]
  activation of cAMP: 40 % of the maximal isoproterenol response
β1AR [5]
  dependency of ERK activation on β-arrestin: independent of β-arrestin

## COc1ccccc1OCCNCC(O)COc1cccc2[nH]c3ccccc3c12 (stereo not shown) [carvedilol]
Mouse hearts; 5 or 20 mg/kg/day, wild type mice
  effect on I/R induced apoptosis: inhibited I/R induced apoptosis
Mouse hearts; low or high dose (1 or 20 mg/kg/day), cardiomyocyte-specific β-arrestin1/2 knockout mice
  effect on I/R-induced apoptosis: did not reduce
C57BL/6J wild-type mice; 1 mg/kg/day, osmotic pump
  effect on isoproterenol-induced hemodynamics (heart rate, dP/dt max): minimal effect
C57BL/6J wild-type mice; higher doses (5, 20 mg/kg/day)
  effect on isoproterenol-induced hemodynamics (heart rate, dP/dt max): blocked both the heart rate and contractility response

## EGF: EGF ligand of the EGFR
β1AR [2]; assay validation
  ligand-induced EGFR endocytosis (change in BRET ratio): robust change in BRET ratio
